According to ChEMBL document CHEMBL5303573, “Mapping human microbiome drug metabolism by gut bacteria and their genes” (Nature, 2019):

Assays:
[1] = The drug is tested on Eubacterium rectale strain: ATCC33656 for biotransformation. The drug concentrations were measured before and after a 12-h incubation by liquid-chromatography-coupled mass spectrometry (LC–MS); settings: agathobacter rectalis, 2 µM
[2] = The drug is tested on Bacteroides vulgatus strain: ATCC8482 for biotransformation. The drug concentrations were measured before and after a 12-h incubation by liquid-chromatography-coupled mass spectrometry (LC–MS); settings: phocaeicola vulgatus, 2 µM
[3] = The drug is tested on Bacteroides ovatus strain: ATCC8483 for biotransformation. The drug concentrations were measured before and after a 12-h incubation by liquid-chromatography-coupled mass spectrometry (LC–MS); settings: 2 µM
[4] = bacteroides fragilis, 12 h, 2 µM
Description: The drug is tested on Bacteroides fragilis strain: DS-208 for biotransformation. The drug concentrations were measured before and after a 12-h incubation by liquid-chromatography-coupled mass spectrometry (LC–MS)

[5] = The drug is tested on Alistipes indistinctus strain: DSM22520 for biotransformation. The drug concentrations were measured before and after a 12-h incubation by liquid-chromatography-coupled mass spectrometry (LC–MS); settings: 2 µM
[6] = The drug is tested on Parabacteroides merdae strain: ATCC43184 for biotransformation. The drug concentrations were measured before and after a 12-h incubation by liquid-chromatography-coupled mass spectrometry (LC–MS); settings: 2 µM
[7] = The drug is tested on Clostridium sp. strain: fecal isolate for biotransformation. The drug concentrations were measured before and after a 12-h incubation by liquid-chromatography-coupled mass spectrometry (LC–MS); settings: 2 µM
[8] = The drug is tested on Edwardsiella tarda strain: ATCC23685 for biotransformation. The drug concentrations were measured before and after a 12-h incubation by liquid-chromatography-coupled mass spectrometry (LC–MS); settings: 2 µM
[9] = bacteroides fragilis, 12 h, 2 µM; remark: listed apart in the source
Description: The drug is tested on Bacteroides fragilis strain: NCTC 9343 for biotransformation. The drug concentrations were measured before and after a 12-h incubation by liquid-chromatography-coupled mass spectrometry (LC–MS)

[10] = The drug is tested on Bifidobacterium breve strain: DSM20213 for biotransformation. The drug concentrations were measured before and after a 12-h incubation by liquid-chromatography-coupled mass spectrometry (LC–MS); settings: 2 µM
[11] = The drug is tested on Bacteroides fragilis strain: ATCC43859 for biotransformation. The drug concentrations were measured before and after a 12-h incubation by liquid-chromatography-coupled mass spectrometry (LC–MS); settings: 2 µM
[12] = bacteroides eggerthii, 12 h, 2 µM
Description: The drug is tested on Bacteroides eggerthii strain: DSM20697 for biotransformation. The drug concentrations were measured before and after a 12-h incubation by liquid-chromatography-coupled mass spectrometry (LC–MS)

[13] = anaerostipes sp., 12 h, 2 µM
Description: The drug is tested on Anaerostipes sp. strain: fecal isolate for biotransformation. The drug concentrations were measured before and after a 12-h incubation by liquid-chromatography-coupled mass spectrometry (LC–MS)

[14] = The drug is tested on Bacteroides xylanisolvens strain: DSM18836 for biotransformation. The drug concentrations were measured before and after a 12-h incubation by liquid-chromatography-coupled mass spectrometry (LC–MS); settings: 2 µM
[15] = The drug is tested on Bacteroides cellulosilyticus strain: DSM14838 for biotransformation. The drug concentrations were measured before and after a 12-h incubation by liquid-chromatography-coupled mass spectrometry (LC–MS); settings: 2 µM
[16] = victivallis vadensis, 12 h, 2 µM
Description: The drug is tested on Victivallis vadensis strain: ATCC BAA-548 for biotransformation. The drug concentrations were measured before and after a 12-h incubation by liquid-chromatography-coupled mass spectrometry (LC–MS)

[17] = The drug is tested on Eggerthella lenta strain: ATCC25559 for biotransformation. The drug concentrations were measured before and after a 12-h incubation by liquid-chromatography-coupled mass spectrometry (LC–MS); settings: 2 µM
[18] = The drug is tested on Odoribacter splanchnicus strain: fecal isolate for biotransformation. The drug concentrations were measured before and after a 12-h incubation by liquid-chromatography-coupled mass spectrometry (LC–MS); settings: 2 µM
[19] = The drug is tested on Bacteroides uniformis strain: ATCC8492 for biotransformation. The drug concentrations were measured before and after a 12-h incubation by liquid-chromatography-coupled mass spectrometry (LC–MS); settings: 2 µM
[20] = The drug is tested on Bacteroides fragilis strain: HMW615 for biotransformation. The drug concentrations were measured before and after a 12-h incubation by liquid-chromatography-coupled mass spectrometry (LC–MS); settings: 2 µM

Compound | Bacterial Biotransformation [1] | Bacterial Biotransformation [2] | Bacterial Biotransformation [3] | Bacterial Biotransformation [4] | Bacterial Biotransformation [5] | Bacterial Biotransformation [6] | Bacterial Biotransformation [7] | Bacterial Biotransformation [8] | Bacterial Biotransformation [9] | Bacterial Biotransformation [10] | Bacterial Biotransformation [11] | Bacterial Biotransformation [12] | Bacterial Biotransformation [13] | Bacterial Biotransformation [14] | Bacterial Biotransformation [15] | Bacterial Biotransformation [16] | Bacterial Biotransformation [17] | Bacterial Biotransformation [18] | Bacterial Biotransformation [19] | Bacterial Biotransformation [20]
N[C@@H](Cc1ccc(N(CCCl)CCCl)cc1)C(=O)O | Compound metabolized | Compound metabolized | Compound metabolized | Compound metabolized | Compound metabolized | Compound metabolized | Compound metabolized | Compound metabolized | Compound metabolized | Compound metabolized | Compound metabolized | Compound metabolized | Compound metabolized | Compound metabolized | Compound metabolized | Compound metabolized | Compound metabolized | Compound metabolized | Compound metabolized | Compound metabolized
CN1CCc2cccc3c2[C@H]1Cc1ccc(O)c(O)c1-3 [APOMORPHINE] | Compound NOT metabolized | Compound NOT metabolized | Compound NOT metabolized | Compound NOT metabolized | Compound NOT metabolized | Compound NOT metabolized | Compound NOT metabolized | Compound NOT metabolized | Compound NOT metabolized | Compound NOT metabolized | Compound NOT metabolized | Compound NOT metabolized | Compound NOT metabolized | Compound NOT metabolized | Compound NOT metabolized | Compound NOT metabolized | Compound NOT metabolized | Compound NOT metabolized | Compound NOT metabolized | Compound NOT metabolized
C[C@@H]1CC[C@H]2[C@@H](C)C(=O)O[C@@H]3O[C@@]4(C)CC[C@@H]1[C@]32OO4 [ARTEMISININ] | Compound metabolized | Compound metabolized | Compound metabolized | Compound metabolized | Compound metabolized | Compound metabolized | Compound metabolized | Compound metabolized | Compound metabolized | Compound metabolized | Compound metabolized | Compound metabolized | Compound metabolized | Compound metabolized | Compound metabolized | Compound metabolized | Compound metabolized | Compound metabolized | Compound metabolized | Compound metabolized
CC(=O)Oc1ccc(C(c2ccc(OC(C)=O)cc2)c2ccccn2)cc1 [BISACODYL] | Compound metabolized | Compound metabolized | Compound metabolized | Compound metabolized | Compound metabolized | Compound metabolized | Compound metabolized | Compound metabolized | Compound metabolized | Compound metabolized | Compound metabolized | Compound metabolized | Compound metabolized | Compound metabolized | Compound metabolized | Compound metabolized | Compound metabolized | Compound metabolized | Compound metabolized | Compound metabolized
CCN(CC)CCOCCOC(=O)C1(c2ccccc2)CCCC1.O=C(O)CC(O)(CC(=O)O)C(=O)O [CARBETAPENTANE CITRATE] | Compound NOT metabolized | Compound metabolized | Compound metabolized | Compound metabolized | Compound metabolized | Compound metabolized | Compound metabolized | Compound metabolized | Compound metabolized | Compound metabolized | Compound NOT metabolized | Compound metabolized | Compound metabolized | Compound metabolized | Compound metabolized | Compound metabolized | Compound metabolized | Compound metabolized | Compound metabolized | Compound NOT metabolized
COc1ccccc1OCCNCC(O)COc1cccc2[nH]c3ccccc3c12 (stereo not drawn) [CARVEDILOL] | Compound NOT metabolized | Compound metabolized | Compound metabolized | Compound metabolized | Compound metabolized | Compound metabolized | Compound NOT metabolized | Compound NOT metabolized | Compound metabolized | Compound NOT metabolized | Compound NOT metabolized | Compound NOT metabolized | Compound metabolized | Compound metabolized | Compound metabolized | Compound NOT metabolized | Compound NOT metabolized | Compound NOT metabolized | Compound metabolized | Compound metabolized
COc1ccc2[nH]c([S+]([O-])Cc3ncc(C)c(OC)c3C)nc2n1 (stereo not drawn) [TENATOPRAZOLE] | Compound metabolized | Compound metabolized | Compound metabolized | Compound metabolized | Compound metabolized | Compound metabolized | Compound metabolized | Compound metabolized | Compound metabolized | Compound metabolized | Compound metabolized | Compound metabolized |  | Compound metabolized | Compound metabolized | Compound metabolized | Compound metabolized | Compound metabolized | Compound metabolized | Compound metabolized
CCS(=O)(=O)CCn1c([N+](=O)[O-])cnc1C [TINIDAZOLE] | Compound metabolized | Compound metabolized | Compound metabolized | Compound metabolized | Compound metabolized | Compound metabolized | Compound metabolized |  | Compound metabolized | Compound metabolized | Compound metabolized | Compound metabolized | Compound metabolized | Compound metabolized | Compound metabolized | Compound metabolized | Compound metabolized | Compound metabolized | Compound metabolized | Compound metabolized
